Results from ChEMBL document CHEMBL3813645, “Design, synthesis of 2,3-disubstitued 4(3H)-quinazolinone derivatives as anti-inflammatory and analgesic agents: COX-1/2 inhibitory activities and molecular docking studies” (Bioorg Med Chem, 2016).

Legend:
Rattus norvegicus = experiment: Antiinflammatory activity in ip dosed rat carrageenan-induced foot paw edema model measured after 2 hrs by plethysmometric analysis; format: functional
Mus musculus = experiment: Analgesic activity in ip dosed albino Swiss mouse assessed as nociceptive response measured after 60 mins by hot plate method; format: functional; conditions: 1 h
[1] = biological target: T1, Prostaglandin G/H synthase 1 (Ovis aries, UniProt P05979); experiment: Inhibition of ovine COX1 using arachidonic acid as substrate preincubated for 5 mins followed by substrate addition by ELISA
T1 sequence (P05979 whole entry): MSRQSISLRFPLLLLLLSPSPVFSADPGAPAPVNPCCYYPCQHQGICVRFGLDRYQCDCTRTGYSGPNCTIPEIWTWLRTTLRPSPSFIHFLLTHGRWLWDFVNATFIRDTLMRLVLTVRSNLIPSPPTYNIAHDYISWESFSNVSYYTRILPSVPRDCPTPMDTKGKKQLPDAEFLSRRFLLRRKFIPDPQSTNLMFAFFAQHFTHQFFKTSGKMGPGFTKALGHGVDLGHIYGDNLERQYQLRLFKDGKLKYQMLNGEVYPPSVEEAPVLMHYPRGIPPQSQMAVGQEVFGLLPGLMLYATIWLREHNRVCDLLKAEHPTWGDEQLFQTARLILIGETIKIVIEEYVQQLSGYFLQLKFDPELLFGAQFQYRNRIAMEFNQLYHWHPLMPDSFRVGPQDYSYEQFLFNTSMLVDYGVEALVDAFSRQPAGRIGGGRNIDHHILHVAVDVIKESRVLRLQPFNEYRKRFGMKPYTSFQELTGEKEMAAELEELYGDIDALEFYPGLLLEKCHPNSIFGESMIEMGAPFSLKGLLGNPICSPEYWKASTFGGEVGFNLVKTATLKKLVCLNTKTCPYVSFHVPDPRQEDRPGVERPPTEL

Row | SMILES | ED50 (Rattus norvegicus) [mg/kg] | ED50 (Mus musculus) [mg/kg] | IC50 [1] [µM]
1 | O=C(CSc1nc2ccccc2c(=O)n1CCc1ccccn1)NNS(=O)(=O)c1ccc(Br)cc1 | > 200 | – | –
2 | O=C(CSc1nc2ccccc2c(=O)n1CCc1ccccn1)Nc1ccccc1 | > 200 | – | –
3 | O=C(CSc1nc2ccccc2c(=O)n1CCc1ccccn1)N/N=C/c1ccccc1 | 104 | 54.5 | –
4 | COc1ccc(NC(=O)CSc2nc3ccccc3c(=O)n2CCc2ccccn2)cc1 | 81.5 | 111 | > 100
5 | COc1cc(NC(=O)CSc2nc3ccccc3c(=O)n2CCc2ccccn2)cc(OC)c1OC | 65.3 | 60.3 | > 100
6 | O=C(CSc1nc2ccccc2c(=O)n1CCc1ccccn1)NCc1ccccc1 | > 200 | – | –
7 | NC(=O)CSc1nc2ccccc2c(=O)n1CCc1ccccn1 | > 200 | – | –
8 | COc1cc(/C=N/NC(=O)CSc2nc3ccccc3c(=O)n2CCc2ccccn2)cc(OC)c1OC | > 200 | – | –
9 | O=C(CSc1nc2ccccc2c(=O)n1CCc1ccccn1)N/N=C/c1ccc(Cl)cc1 | 66.6 | 33.7 | –
10 | COc1ccc(S(=O)(=O)NNC(=O)CSc2nc3ccccc3c(=O)n2CCc2ccccn2)cc1OC | > 200 | – | –
11 | O=C(CSc1nc2ccccc2c(=O)n1CCc1ccccn1)c1ccc(F)cc1 | 91.2 | 78.1 | > 100
12 | COc1ccc(/C=N/NC(=O)CSc2nc3ccccc3c(=O)n2CCc2ccccn2)cc1OC | 112 | 78.5 | –
13 | COc1ccc(C(=O)CSc2nc3ccccc3c(=O)n2CCc2ccccn2)cc1 | > 200 | – | –
14 | O=C(CSc1nc2ccccc2c(=O)n1CCc1ccccn1)c1ccccc1 | > 200 | – | –
15 | O=C(CSc1nc2ccccc2c(=O)n1CCc1ccccn1)Nc1ccc(F)cc1 | 50.3 | 12.3 | > 100
16 | COc1cc(NC(=O)CCSc2nc3ccccc3c(=O)n2CCc2ccccn2)cc(OC)c1OC | 74.2 | 80.3 | > 100
17 | O=c1c2ccccc2nc(S)n1CCc1ccccn1 | 102 | 98.2 | > 100
18 | COc1ccc(/C=N/NC(=O)CSc2nc3ccccc3c(=O)n2CCc2ccccn2)cc1 | 67.5 | 50.3 | –
19 | CCOC(=O)CSc1nc2ccccc2c(=O)n1CCc1ccccn1 | > 200 | – | –
20 | O=C(CSc1nc2ccccc2c(=O)n1CCc1ccccn1)NNS(=O)(=O)c1ccccc1 | > 200 | – | –
21 | NNC(=O)CSc1nc2ccccc2c(=O)n1CCc1ccccn1 | 74.5 | 40.3 | > 100
22 | Cc1ccc(-c2cc(C(F)(F)F)nn2-c2ccc(S(N)(=O)=O)cc2)cc1 [CELECOXIB] | – | 71 | –
23 | O=C(O)Cc1ccccc1Nc1c(Cl)cccc1Cl [DICLOFENAC] | 112 | 100 | –
